Reference: ChEMBL document CHEMBL3286309, “4,5-Di-substituted benzyl-imidazol-2-substituted amines as the structure template for the design and synthesis of reversal agents against P-gp-mediated multidrug resistance breast cancer cells” (Eur J Med Chem, 2014)

Experiments:
[1] = Cytotoxicity against human MDA435/LCC6 cells after 3 days by MTS assay; assay type: cell-based; details: MDA-435/LCC6, 72 h
L929 = experiment: Cytotoxicity against mouse L929 cells after 3 days by MTS assay; assay type: cell-based; details: L929, 72 h
[2] = Cytotoxicity against human MDA435/LCC6MDR cells after 3 days by MTS assay; assay type: ADME, cell-based; details: 72 h
[3] = Cytotoxicity against human MDA435/LCC6MDR cells after 5 days by MTS assay; assay type: functional, cell-based; details: 120 h
[4] = Cytotoxicity against human MDA435/LCC6 cells after 5 days by MTS assay; assay type: functional, cell-based; details: MDA-435/LCC6, 120 h

Work on `CCN(CC)c1ccc(Cc2c(Cc3ccc(OC)c(OC)c3)nc(N(C(=O)/C=C/c3cc(OC)c(OC)c(OC)c3)C(=O)/C=C/c3cc(OC)c(OC)c(OC)c3)n2C)cc1` yielded an IC50 [1] of 13.7 µM, an IC50 (L929) of 18.2 µM and an IC50 [2] of 9.1 µM.
Compound `CCN(CC)c1ccc(Cc2c(Cc3ccc(OC)c(OC)c3)nc(NC(=O)c3cc(OC)c(OC)c(OC)c3)n2C)cc1` has an IC50 [1] of 45.2 µM, an IC50 (L929) of 47.4 µM and an IC50 [2] of 38.3 µM.
`CC(=O)O[C@H]1C(=O)[C@@]2(C)[C@H]([C@H](OC(=O)c3ccccc3)[C@]3(O)C[C@H](OC(=O)[C@H](O)[C@@H](NC(=O)c4ccccc4)c4ccccc4)C(C)=C1C3(C)C)[C@]1(OC(C)=O)CO[C@@H]1C[C@@H]2O` [PACLITAXEL] showed an IC50 [3] of 0.149 µM and an IC50 [4] of 0.0026 µM.
